Measurements as given in US20070202062A1, “Natural deodorant compositions comprising renewably-based, biodegradable 1,3-propanediol” (priority 2006, published 2007).

Key:
[1] = Glycerine vs Bio-PDO - Efficacy (deodorant actives, in vivo human)
[2] = Glycerine vs Bio-PDO - Stability (Efficacy/shelf-life); details: active in GLYCERINE; in vivo (human)
[3] = Glycerine vs Bio-PDO - Stability (Shrinkage - 3 months); type: physicochemical
[4] = Glycerine vs Bio-PDO - Irritation (in vivo human)

Compound | Efficacy, # hours ([1]; active in Bio-PDO) | Efficacy, # hours ([1]; active in GLYCERINE) | Stability (Efficacy/shelf-life), # months [2] | Stability (Shrinkage - 3 months), % in product ([3]; active in Bio-PDO) | Stability (Shrinkage - 3 months), % in product ([3]; active in GLYCERINE) | Irritation, Ranking 1-10 ([4]; active in Bio-PDO) | Irritation, Ranking 1-10 ([4]; active in GLYCERINE)
CCCCCCCCCCCC(=O)OCC(O)CO (stereo not drawn) [GML, Glyceryl monolaurate] | 12 h | 4 h | 6 months | 3% | 0% | 0 | 0
polyglyceryl-3 caprylate [polyglycerol 3 caprylate] | 12 h | 0 h | – | – | – | – | –
